Measurements published in patent US7232929B2, “Amide derivatives of 2,2,3,3-tetramethylcyclopropane carboxylic acid” (Yissum Research Development Company of the Hebrew …, priority 2003, dated 2007).
Read-outs that look alike come from different tables or passages of the source.

How the values were obtained:
[1] = tested on: electrically induced convulsions (MES) in mice; assay: maximal electroshock seizure test (MES), mice, ip; format: in vivo; settings: Mus musculus, ip administration, read-out: ED50 in the MES model
Excerpt: (§1) The first model, the maximal electroshock seizure test (MES), is used to show efficacy for antiepileptic agents against partial and generalized seizure type epilepsy, the common epilepsy among therapy resistant epileptic patients. The second model, the subcutaneous metrazole test (scMet) measures seizure threshold and is a standard screening procedure to show efficacy for agents against seizure threshold and absence seizures.

[2] = tested on: chemically induced convulsions (scMet) in mice; assay: subcutaneous metrazole test (scMet), mice, ip; format: in vivo; settings: Mus musculus, read-out: ED50 in the scMet model
Excerpt: as §1

[3] = tested on: chemically induced convulsions (scMet) in rats; assay: subcutaneous metrazole test (scMet), rats, oral; format: in vivo, rat; settings: for ED50: Rattus norvegicus, po, read-out: ED50 in the scMet model; for N/F (fraction of rats responded): scMET
Excerpt: as §1

[4] = tested on: electrically induced convulsions (MES) in rats; assay: maximal electroshock seizure test (MES), rats, oral; format: in vivo, rat; settings: for N/F (fraction of rats responded): MES; for ED50: Rattus norvegicus, oral administration, read-out: ED50 (median effective dose) in the MES model
Excerpt: as §1

[5] = tested on: tactile allodynia in SNL rats; assay: rat spinal nerve ligation (SNL) model for neuropathic pain, von Frey filaments; format: in vivo
Protocol: Experiments were performed on male Sprague-Dawley rats (Harlan laboratories, Jerusalem, Israel) weighing 175–200 g. The mechanical sensitivity (tactile allodynia) of the foot was quantified by the occurrence of foot withdrawal in response to normally innocuous mechanical stimuli using nine different von Frey filaments (VFF) ranging from 0.6 to 26 g. The rats were placed on a metal mesh floor covered with a transparent plastic dome and a period of acclimatization was allowed prior to testing. VFF were applied from underneath the mesh floor to the plantar surface of the foot. Each trial consisted of repeated applications of each of the VFFs in an ascending order for 5 times, each for a period of 1 s. If the rat withdrew the foot at least 3 times out of 5 at a specific VFF no further ascending filaments were tested and this filament was considered as a withdrawal threshold (response). Mechanical stimulus trials with the series of ascending VFF were repeated 2 times for a given time point. The repeated measurements were averaged and taken as the paw withdrawal threshold on a given time point.
For drug testing, the effect on neuropathic pain was measured 5–6 days following operation. Rats responding to mechanical stimuli of 10 g or less (in the operated leg) were eligible for the study.
The procedure of ligation and cut of the spinal nerves for induction of neuropathic pain was performed as previously described by Sheen and Chung (Sheen, K. and Chung, J. M., Signs of neuropathic pain depend on signals from injured nerve fibers in a rat model, Brain Research 610: 62–68 (1993)). Briefly, under ketamine-xylazine anaesthesia rats were placed in a prone position and the left paraspinal muscles were separated from spinous processes at the L4-S2 level. Part of the L6 transverse process was removed and the L4–L6 spinal nerves were identified. The L5–L6 spinal nerves were isolated and tightly ligated and cut, distal to the dorsal root ganglion and proximal to the formation of the sciatic nerve. Following complete […] the wound was sutured.
For all the studies, appropriate amounts of the tested compound were suspended in 0.5% methylcellulose to a volume of 4 mL/kg body weight. TMC-Urea and methylcellulose (MC, vehicle) were administered intraperitoneally (i.p) to rats at postoperative days 7, 14 and 21 in a double blind randomized crossover manner.
Rats that obtained threshold of 15 g and above, back to pre-operation baseline, were regarded free of tactile allodynia.
Median effective dose (ED50) and its 95% confidence intervals were calculated using the pharmacodynamic software package WinNonlin, version 4.0.1 (SCI Software, Lexington, Ky., U.S.A.).
Threshold data from VFF testing are presented as actual threshold (absolute) in grams and as percent of absolute responders.
For statistical analyses the nonparametric two-tailed Mann-Whitney U was used. A p value less than 0.05 was considered significant.

rats [6] = assay: neurotoxicity, gait and stance test, rats, po; settings: for protective index or safety of margin TD50/ED50: TD50 / MES ED50
Protocol: (§2) Neurotoxicity of the claimed agents was assessed in mice (ip. administration) in the rotorod ataxia test and in rats (po. administration) in the gait and stance test which assesses minimal neurotoxicity. The term qauntitating the neurotoxicity is the median neurological toxic dose (TD50).
The protective index (PI) is defined as the ratio of TD50 and ED50 (PI=TD50/ED50). The PI is used to show a useful separation between neurotoxicity and antiepileptic activity. The larger the PI, the better the separation between neurotoxicity and efficacious doses.

[7] = neurotoxicity, rotorod ataxia test, mice, ip; settings: mouse, in vivo
Protocol: as §2

[8] = tested on: electrically induced convulsions (MES) in rats; settings: literature comparison; cited from earlier work
[9] = tested on: electrically induced convulsions (MES) in mice; settings: literature comparison; cited from earlier work
[10] = tested on: animal models of epilepsy; settings: cited from earlier work
mouse model = settings: cited from earlier work
rats [11] = settings: comparison values; cited from earlier work
[12] = tested on: chemically induced convulsions (scMet) in rats; settings: literature comparison, inactive at 250 mg/kg; cited from earlier work

CC1(C)C(C(=O)NC(N)=O)C1(C)C [Compound I, N-2,2,3,3-tetramethylcyclopropanecarbonyl urea]
ED50 [1]: 90 mg/kg
ED50 [2]: 125 mg/kg
ED50 [3]: 91.8 mg/kg
N/F (fraction of rats responded) ([3]; dose 25 mg/kg): 1/8
N/F (fraction of rats responded) ([3]; dose 50 mg/kg): 3/8
N/F (fraction of rats responded) ([3]; dose 100 mg/kg): 3/8
N/F (fraction of rats responded) ([3]; dose 200 mg/kg): 6/8
N/F (fraction of rats responded) ([3]; dose 400 mg/kg): 8/8
N/F (fraction of rats responded) ([4]; dose 10 mg/kg): 0/8
N/F (fraction of rats responded) ([4]; dose 20 mg/kg): 4/8
N/F (fraction of rats responded) ([4]; dose 40 mg/kg): 5/8
N/F (fraction of rats responded) ([4]; dose 80 mg/kg): 7/8
ED50 [4]: 29.4 mg/kg
Allodynic response, Total responders ([5]; 20 mg/kg ip): 0/9
Allodynic response (number of rats responded/total number of rats) ([5]; 20 mg/kg ip, 30 min): 0/9
Allodynic response (number of rats responded/total number of rats) ([5]; 20 mg/kg ip, 60 min): 0/9
Allodynic response (number of rats responded/total number of rats) ([5]; 20 mg/kg ip, 120 min): 0/9
Allodynic response (number of rats responded/total number of rats) ([5]; 20 mg/kg ip, 180 min): 0/9
Allodynic response (number of rats responded/total number of rats) ([5]; 20 mg/kg ip, 240 min): 0/9
Allodynic response, Total responders ([5]; 60 mg/kg ip): 0/9
Allodynic response (number of rats responded/total number of rats) ([5]; 60 mg/kg ip, 30 min): 0/9
Allodynic response (number of rats responded/total number of rats) ([5]; 60 mg/kg ip, 60 min): 0/9
Allodynic response (number of rats responded/total number of rats) ([5]; 60 mg/kg ip, 120 min): 0/9
Allodynic response (number of rats responded/total number of rats) ([5]; 60 mg/kg ip, 180 min): 0/9
Allodynic response (number of rats responded/total number of rats) ([5]; 60 mg/kg ip, 240 min): 0/9
Allodynic response, Total responders ([5]; 120 mg/kg ip): 3/9
Allodynic response (number of rats responded/total number of rats) ([5]; 120 mg/kg ip, 30 min): 0/9
Allodynic response (number of rats responded/total number of rats) ([5]; 120 mg/kg ip, 60 min): 1/9
Allodynic response (number of rats responded/total number of rats) ([5]; 120 mg/kg ip, 120 min): 3/9
Allodynic response (number of rats responded/total number of rats) ([5]; 120 mg/kg ip, 180 min): 3/9
Allodynic response (number of rats responded/total number of rats) ([5]; 120 mg/kg ip, 240 min): 3/9
Allodynic response, Total responders ([5]; 180 mg/kg ip): 3/7
Allodynic response (number of rats responded/total number of rats) ([5]; 180 mg/kg ip, 30 min): 0/7
Allodynic response (number of rats responded/total number of rats) ([5]; 180 mg/kg ip, 60 min): 1/7
Allodynic response (number of rats responded/total number of rats) ([5]; 180 mg/kg ip, 120 min): 3/7
Allodynic response (number of rats responded/total number of rats) ([5]; 180 mg/kg ip, 180 min): 3/7
Allodynic response (number of rats responded/total number of rats) ([5]; 180 mg/kg ip, 240 min): 3/7
Allodynic response, Total responders ([5]; 240 mg/kg ip): 9/10
Allodynic response (number of rats responded/total number of rats) ([5]; 240 mg/kg ip, 30 min): 0/10
Allodynic response (number of rats responded/total number of rats) ([5]; 240 mg/kg ip, 60 min): 2/10
Allodynic response (number of rats responded/total number of rats) ([5]; 240 mg/kg ip, 120 min): 8/10
Allodynic response (number of rats responded/total number of rats) ([5]; 240 mg/kg ip, 180 min): 8/10
Allodynic response (number of rats responded/total number of rats) ([5]; 240 mg/kg ip, 240 min): 8/10
ED50 ([5]; Rattus norvegicus, ip, 2 h, i.p., at 120 min post-dose, read-out: ED50 (antiallodynic, rats free of tactile allodynia)): 171 mg/kg
effect on tactile allodynia ([5]; i.p., significant reduction at 120 to 240 min at 120-240 mg/kg): decreased tactile allodynia in a dose-dependent manner
protective index or safety of margin TD50/ED50 (rats [6]): 18.5
TD50 (median neurological toxic dose) (rats [6]; oral administration): 538 mg/kg

CONC(=O)C1C(C)(C)C1(C)C [Compound V, N-methoxy-2,2,3,3-tetramethylcyclopropane carboxamide]
TD50 [7]: 166 mg/kg
ED50 [1]: 115 mg/kg
ED50 [2]: 74 mg/kg
ED50 [3]: 35 mg/kg

CC1(C)C(C(=O)Nc2nnc(S(N)(=O)=O)s2)C1(C)C [Compound VI, 5-(2,2,3,3-tetramethylcyclopropanecarbonylamido)-1,3,4-thiadiazole-2-sulfonamide]
ED50 [1]: 16 mg/kg

CN(C)C(=O)NC(=O)C1C(C)(C)C1(C)C [II, 1,1-N,N-dimethyl-2,2,3,3-tetramethylcyclopropanecarbonyl urea]
ED50 [4]: 87 mg/kg
neurotoxicity (rats [6]; oral, doses up to 500 mg/kg): no neurotoxicity

CNC(=O)C1C(C)(C)C1(C)C [M-TMCD, N-methyl 2,2,3,3-tetramethylcyclopropane carboxamide]
ED50 in rat-MES [8]: 82 mg/kg
ED50 in mice-MES [9]: 99 mg/kg
anticonvulsant potency relative to VPA [10]: approximately 10 times
teratogenicity (mouse model; mouse, in vivo): not teratogenic
protective index or safety of margin TD50/ED50 (rats [6]): 2

CC1(C)C(C(=O)NCC(N)=O)C1(C)C [TMC glycinamide, N-2,2,3,3-tetramethylcyclopropyl carbonyl-glycinamide]
ED50 in rat-MES [8]: 82 mg/kg
ED50 in mice-MES [9]: 173 mg/kg
TD50 (median neurological toxic dose) (rats [11]): above 500 mg/kg
protective index or safety of margin TD50/ED50 (rats [6]): > 6.1
ED50 in the scMet model [12]: > 250 mg/kg

CC1(C)C(C(N)=O)C1(C)C [tetramethylcyclopropane carboxamide]
teratogenicity (mouse model; mouse model): not teratogenic
